From patent US7238694B2, “Rifamycin imino derivatives effective against drug-resistant microbes” (Cumbre Pharmaceuticals, Inc., priority 2004, dated 2007)
In brackets after ≈: the same amount, converted by molar mass.

Key:
Type in all cases: cell-based
[1] = system: Haemophilus influenzae ATCC10211; test: MIC, microbroth dilution (NCCLS); conditions: rifS strain, BHI Broth with NAD and hematin, 37° C., read-out: MIC
[2] = system: Streptococcus pyogenes ATCC19615; test: MIC, microbroth dilution (NCCLS); conditions: rifS strain, THY Broth, 37° C., read-out: MIC
[3] = system: Staphylococcus aureus MT1222 gyrA^A116E grlB^S80F; test: microbe, parasite or virus in culture; conditions: cipR strain, Cation-Adjusted Mueller-Hinton Broth, 37° C., read-out: MIC
[4] = system: Staphylococcus aureus ATCC29213; test: MIC, microbroth dilution (NCCLS); conditions: rifS strain, Cation-Adjusted Mueller-Hinton Broth, 37° C., read-out: MIC
[5] = system: Staphylococcus epidermidis ATCC12228; test: MIC, microbroth dilution (NCCLS); conditions: rifS strain, Cation-Adjusted Mueller-Hinton Broth, 37° C., read-out: MIC
[6] = system: Streptococcus pneumoniae ATCC6303; test: MIC, microbroth dilution (NCCLS); conditions: rifS strain, THY Broth with 1 mg/mL catalase, 5% CO2, 37° C., read-out: MIC
[7] = system: Staphylococcus aureus ATCC29213 rpoB^H418Y; test: microbe, parasite or virus in culture; conditions: Staphylococcus aureus, ATCC29213; rifR strain; Cation-Adjusted Mueller-Hinton Broth, 37° C.; read-out: MIC

SMILES | MIC [1] [µg/mL] | MIC [2] [µg/mL] | MIC [3] [µg/mL] | MIC [4] [µg/mL] | MIC [5] [µg/mL] | MIC [6] [µg/mL] | MIC [7] [µg/mL]
CO[C@H]1/C=C/O[C@@]2(C)Oc3c(C)c(O)c4c(O)c(c(/C=N/N5CCN(c6cc7c(cc6F)c(=O)c(C(=O)O)cn7C6CC6)CC5)c(O)c4c3C2=O)NC(=O)/C(C)=C\C=C\[C@H](C)[C@H](O)[C@@H](C)[C@@H](O)[C@@H](C)[C@H](OC(C)=O)[C@@H]1C [Example 4, 3-[4-(3-Carboxy-1-cyclopropl-6-fluoro-4-oxo-1,4-dihydroquinolin-7-yl)piperazin-1-yl-aminomethylenyl]rifamycin SV] | 0.125 to 4 (≈ 0.119 to 3.79 µM) | 0.008 to 0.03 (≈ 0.00759 to 0.0285 µM) | 0.008 to 0.125 (≈ 0.00759 to 0.119 µM) | 0.008 to 1 (≈ 0.00759 to 0.949 µM) | 0.008 to 0.1 (≈ 0.00759 to 0.0949 µM) | 0.008 to 0.06 (≈ 0.00759 to 0.0569 µM) | 0.06 to 16 (≈ 0.0569 to 15.2 µM)
CO[C@H]1/C=C/O[C@@]2(C)Oc3c(C)c(O)c4c(c3C2=O)C(=O)C(/C=N/N2CCN(c3cc5c(cc3F)c(=O)c(C(=O)O)cn5C3CC3)CC2)=C(NC(=O)/C(C)=C\C=C\[C@H](C)[C@H](O)[C@@H](C)[C@@H](O)[C@@H](C)[C@H](OC(C)=O)[C@@H]1C)C4=O [Example 5, 3-[4-(3-Carboxy-1-cyclopropl-6-fluoro-4-oxo-1,4-dihydroquinolin-7-yl)-piperazin-1-yl-aminomethylenyl]rifamycin S] | 0.125 to 4 (≈ 0.119 to 3.8 µM) | 0.008 to 0.03 (≈ 0.0076 to 0.0285 µM) | 0.008 to 0.125 (≈ 0.0076 to 0.119 µM) | 0.008 to 1 (≈ 0.0076 to 0.95 µM) | 0.008 to 0.1 (≈ 0.0076 to 0.095 µM) | 0.008 to 0.06 (≈ 0.0076 to 0.057 µM) | 0.06 to 16 (≈ 0.057 to 15.2 µM)
CO[C@H]1/C=C/O[C@@]2(C)Oc3c(C)c(O)c4c(c3C2=O)C(=O)C(/C=N/N2CCN(c3nc5c(cc3F)c(=O)c(C(=O)O)cn5-c3ccc(F)cc3F)CC2)=C(NC(=O)/C(C)=C\C=C\[C@H](C)[C@H](O)[C@@H](C)[C@@H](O)[C@@H](C)[C@H](OC(C)=O)[C@@H]1C)C4=O [Example 10, 3-[4-[3-Carboxy-1-(2,4-difluoro-phenyl)-6-fluoro-4-oxo-1,4-dihydro-[1,8]naphthyridine-7-yl]-piperazin-1-ylaminomethylenyl]rifamycin S] | 0.125 to 4 (≈ 0.111 to 3.56 µM) | 0.008 to 0.03 (≈ 0.00711 to 0.0267 µM) | 0.008 to 0.125 (≈ 0.00711 to 0.111 µM) | 0.008 to 1 (≈ 0.00711 to 0.889 µM) | 0.008 to 0.1 (≈ 0.00711 to 0.0889 µM) | 0.008 to 0.06 (≈ 0.00711 to 0.0533 µM) | 0.06 to 16 (≈ 0.0533 to 14.2 µM)
COc1c(N2CC3CCCN(/N=C/C4=C5NC(=O)/C(C)=C\C=C\[C@H](C)[C@H](O)[C@@H](C)[C@@H](O)[C@@H](C)[C@H](OC(C)=O)[C@H](C)[C@@H](OC)/C=C/O[C@@]6(C)Oc7c(C)c(O)c(c(c7C6=O)C4=O)C5=O)C3C2)c(F)cc2c(=O)c(C(=O)O)cn(C3CC3)c12 (stereo partly drawn) [Example 13, 3-[6-(3-Carboxy-1-cyclopropyl-6-fluoro-8-methoxy-4-oxo-1,4-dihydroquinolin-7-yl)-octahydropyrrolo[3,4-b]pyridin-1-yl-aminomethylenyl]rifamycin S] | 0.125 to 4 (≈ 0.111 to 3.56 µM) | 0.008 to 0.03 (≈ 0.00713 to 0.0267 µM) | 0.008 to 0.125 (≈ 0.00713 to 0.111 µM) | 0.008 to 1 (≈ 0.00713 to 0.891 µM) | 0.008 to 0.1 (≈ 0.00713 to 0.0891 µM) | 0.008 to 0.06 (≈ 0.00713 to 0.0535 µM) | 0.06 to 16 (≈ 0.0535 to 14.3 µM)
CO[C@H]1/C=C/O[C@@]2(C)Oc3c(C)c(O)c4c(O)c(c(/C=N/N5CCN(c6nc7c(cc6F)c(=O)c(C(=O)O)cn7-c6ccc(F)cc6F)CC5)c(O)c4c3C2=O)NC(=O)/C(C)=C\C=C\[C@H](C)[C@H](O)[C@@H](C)[C@@H](O)[C@@H](C)[C@H](OC(C)=O)[C@@H]1C [Example 14, 3-[4-[3-Carboxy-1-(2,4-difluoro-phenyl)-6-fluoro-4-oxo-1,4-dihydro-[1,8]naphthyridine-7-yl]-piperazin-1-ylaminomethylenyl]rifamycin SV] | 0.125 to 4 (≈ 0.111 to 3.55 µM) | 0.008 to 0.03 (≈ 0.0071 to 0.0266 µM) | 0.008 to 0.125 (≈ 0.0071 to 0.111 µM) | 0.008 to 1 (≈ 0.0071 to 0.887 µM) | 0.008 to 0.1 (≈ 0.0071 to 0.0887 µM) | 0.008 to 0.06 (≈ 0.0071 to 0.0532 µM) | 0.06 to 16 (≈ 0.0532 to 14.2 µM)
CCn1cc(C(=O)O)c(=O)c2cc(F)c(N3CCN(/N=C/c4c5c(O)c6c(O)c(C)c7c(c6c4O)C(=O)[C@@](C)(O/C=C/[C@H](OC)[C@@H](C)[C@@H](OC(C)=O)[C@H](C)[C@H](O)[C@H](C)[C@@H](O)[C@@H](C)/C=C/C=C(/C)C(=O)N5)O7)CC3)cc21 [Example 18, 3-[4-(3-Carboxy-1-ethyl-6-fluoro-4-oxo-1,4-dihydroquinolin-7-yl)-piperazin-1-yl-aminomethylenyl]-rifamycin SV] | 0.125 to 4 (≈ 0.12 to 3.84 µM) | 0.008 to 0.03 (≈ 0.00768 to 0.0288 µM) | 0.008 to 0.125 (≈ 0.00768 to 0.12 µM) | 0.008 to 1 (≈ 0.00768 to 0.96 µM) | 0.008 to 0.1 (≈ 0.00768 to 0.096 µM) | 0.008 to 0.06 (≈ 0.00768 to 0.0576 µM) | 0.06 to 16 (≈ 0.0576 to 15.4 µM)
CCn1cc(C(=O)O)c(=O)c2cc(F)c(N3CCN(/N=C/c4c5c(O)c6c(O)c(C)c7c(c6c4O)C(=O)[C@@](C)(O/C=C/[C@H](OC)[C@@H](C)[C@@H](OC(C)=O)[C@H](C)[C@H](O)[C@H](C)[C@@H](O)[C@@H](C)/C=C/C=C(/C)C(=O)N5)O7)CC3)nc21 [Example 19, 3-[4-(3-Carboxy-1-ethyl-6-fluoro-4-oxo-1,4-dihydro-[1,8]naphthyridine-7-yl)-piperazin-1-yl-aminomethylenyl]-rifamycin SV] | 0.125 to 4 (≈ 0.12 to 3.83 µM) | 0.008 to 0.03 (≈ 0.00767 to 0.0288 µM) | 0.008 to 0.125 (≈ 0.00767 to 0.12 µM) | 0.008 to 1 (≈ 0.00767 to 0.959 µM) | 0.008 to 0.1 (≈ 0.00767 to 0.0959 µM) | 0.008 to 0.06 (≈ 0.00767 to 0.0575 µM) | 0.06 to 16 (≈ 0.0575 to 15.3 µM)
COc1c(N2CCN(/N=C/c3c4c(O)c5c(O)c(C)c6c(c5c3O)C(=O)[C@@](C)(O/C=C/[C@H](OC)[C@@H](C)[C@@H](OC(C)=O)[C@H](C)[C@H](O)[C@H](C)[C@@H](O)[C@@H](C)/C=C/C=C(/C)C(=O)N4)O6)CC2)c(F)cc2c(=O)c(C(=O)O)cn(C3CC3)c12 [Example 20, 3-[4-(3-Carboxy-1-cyclopropyl-6-fluoro-8-methoxy-4-oxo-1,4-dihydroquinolin-7-yl)-piperazin-1-yl-aminomethylenyl]-rifamycin SV] | 0.125 to 4 (≈ 0.115 to 3.69 µM) | 0.008 to 0.03 (≈ 0.00738 to 0.0277 µM) | 0.008 to 0.125 (≈ 0.00738 to 0.115 µM) | 0.008 to 1 (≈ 0.00738 to 0.922 µM) | 0.008 to 0.1 (≈ 0.00738 to 0.0922 µM) | 0.008 to 0.06 (≈ 0.00738 to 0.0553 µM) | 0.06 to 16 (≈ 0.0553 to 14.8 µM)
COc1c(N2CCN(C3CCN(/N=C/c4c5c(O)c6c(O)c(C)c7c(c6c4O)C(=O)[C@@](C)(O/C=C/[C@H](OC)[C@@H](C)[C@@H](OC(C)=O)[C@H](C)[C@H](O)[C@H](C)[C@@H](O)[C@@H](C)/C=C/C=C(/C)C(=O)N5)O7)CC3)CC2)c(F)cc2c(=O)c(C(=O)O)cn(C3CC3)c12 [Example 25, 3-{4-[1-(3-Carboxy-1-cyclopropyl-6-fluoro-8-methoxy-4-oxo-1,4-dihydroquinolin-7-yl)-piperazin-4-yl]-piperidin-1-yl-aminomethylenyl}-rifamycin SV] | 0.125 to 4 (≈ 0.107 to 3.43 µM) | 0.008 to 0.03 (≈ 0.00685 to 0.0257 µM) | 0.008 to 0.125 (≈ 0.00685 to 0.107 µM) | 0.008 to 1 (≈ 0.00685 to 0.857 µM) | 0.008 to 0.1 (≈ 0.00685 to 0.0857 µM) | 0.008 to 0.06 (≈ 0.00685 to 0.0514 µM) | 0.06 to 16 (≈ 0.0514 to 13.7 µM)
COc1c(N2CCC(N3CCN(/N=C/c4c5c(O)c6c(O)c(C)c7c(c6c4O)C(=O)[C@@](C)(O/C=C/[C@H](OC)[C@@H](C)[C@@H](OC(C)=O)[C@H](C)[C@H](O)[C@H](C)[C@@H](O)[C@@H](C)/C=C/C=C(/C)C(=O)N5)O7)CC3)CC2)c(F)cc2c(=O)c(C(=O)O)cn(C3CC3)c12 [Example 27, 3-{4-[1-(3-Carboxy-1-cyclopropyl-6-fluoro-8-methoxy-4-oxo-1,4-dihydroquinolin-7-yl)-piperidin-4-yl]-piperazin-1-yl-aminomethylenyl}-rifamycin SV] | 0.125 to 4 (≈ 0.107 to 3.43 µM) | 0.008 to 0.03 (≈ 0.00685 to 0.0257 µM) | 0.008 to 0.125 (≈ 0.00685 to 0.107 µM) | 0.008 to 1 (≈ 0.00685 to 0.857 µM) | 0.008 to 0.1 (≈ 0.00685 to 0.0857 µM) | 0.008 to 0.06 (≈ 0.00685 to 0.0514 µM) | 0.06 to 16 (≈ 0.0514 to 13.7 µM)
COc1c(N2CCN(C(=O)C3CCN(/N=C/c4c5c(O)c6c(O)c(C)c7c(c6c4O)C(=O)[C@@](C)(O/C=C/[C@H](OC)[C@@H](C)[C@@H](OC(C)=O)[C@H](C)[C@H](O)[C@H](C)[C@@H](O)[C@@H](C)/C=C/C=C(/C)C(=O)N5)O7)CC3)CC2)c(F)cc2c(=O)c(C(=O)O)cn(C3CC3)c12 [Example 32, 3-{4-[4-(3-Carboxy-1-cyclopropyl-6-fluoro-8-methoxy-4-oxo-1,4-dihydroquinolin-7-yl)-piperazine-1-yl-carbonyl]-piperidin-1-yl-aminomethylenyl}-rifamycin SV] | 0.125 to 4 (≈ 0.105 to 3.35 µM) | 0.008 to 0.03 (≈ 0.00669 to 0.0251 µM) | 0.008 to 0.125 (≈ 0.00669 to 0.105 µM) | 0.008 to 1 (≈ 0.00669 to 0.837 µM) | 0.008 to 0.1 (≈ 0.00669 to 0.0837 µM) | 0.008 to 0.06 (≈ 0.00669 to 0.0502 µM) | 0.06 to 16 (≈ 0.0502 to 13.4 µM)
CO[C@H]1/C=C/O[C@@]2(C)Oc3c(C)c(O)c4c(O)c(c(/C=N/N5CCN(c6nc7c(cc6F)c(=O)c(C(=O)O)cn7C6CC6)CC5)c(O)c4c3C2=O)NC(=O)/C(C)=C\C=C\[C@H](C)[C@H](O)[C@@H](C)[C@@H](O)[C@@H](C)[C@H](OC(C)=O)[C@@H]1C [Example 35, 3-[4-(3-Carboxy-1-cyclopropyl-6-fluoro-4-oxo-1,4-dihydro-[1,8]naphthyridine-7-yl)-piperazin-1-yl-aminomethylenyl]-rifamycin SV] | 0.125 to 4 (≈ 0.118 to 3.79 µM) | 0.008 to 0.03 (≈ 0.00758 to 0.0284 µM) | 0.008 to 0.125 (≈ 0.00758 to 0.118 µM) | 0.008 to 1 (≈ 0.00758 to 0.948 µM) | 0.008 to 0.1 (≈ 0.00758 to 0.0948 µM) | 0.008 to 0.06 (≈ 0.00758 to 0.0569 µM) | 0.06 to 16 (≈ 0.0569 to 15.2 µM)
